Laboratory results from PubChem BioAssay (NCI).
Where “and” joins values, the source holds several entries; their conditions need not be identical. Equal values may be shown once.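 96-well plates; 48 h exposure; 5 concentrations. Endpoints by linear interpolation between flanking doses. Not reached: highest tested concentration assigned. At the GI50, growth is halved. TGI marks complete inhibition of growth.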

Assays:
Assay in all cases: NCI-60 cell line screen, 48 h
HCT-116 colon = system: HCT-116 colon
SF-268 CNS = system: SF-268 CNS
UACC-62 melanoma = system: UACC-62 melanoma
OVCAR-5 ovarian = system: OVCAR-5 ovarian
COLO 205 colon = system: COLO 205 colon
SK-OV-3 ovarian = system: SK-OV-3 ovarian
HCT-15 colon = system: HCT-15 colon
CAKI-1 renal = system: CAKI-1 renal
RXF 393 renal = system: RXF 393 renal
LOX IMVI melanoma = system: LOX IMVI melanoma

SMILES	TGI (HCT-116 colon) [µM]	TGI (SF-268 CNS) [µM]	TGI (UACC-62 melanoma) [µM]	TGI (OVCAR-5 ovarian) [µM]	TGI (COLO 205 colon) [µM]	TGI (SK-OV-3 ovarian) [µM]	TGI (HCT-15 colon) [µM]	TGI (CAKI-1 renal) [µM]	TGI (RXF 393 renal)	TGI (LOX IMVI melanoma)	GI50 (HCT-116 colon)	GI50 (SF-268 CNS)	GI50 (HCT-15 colon)	GI50 (RXF 393 renal)
Cc1c(C(=O)/C=C/c2ccc(N(C)C)cc2)c(=O)n(-c2ccccc2)n1C	> 100	> 100	> 100	> 100	> 100	> 100	> 100	> 100	> 100 µM	> 100 µM	–	–	–	–
FC(F)(F)C1(Br)C(c2ccccc2)=C1c1ccccc1	20.2	43.9	30.8	52	34.9	> 100	28	54.7	31.7 µM	28 µM	–	–	–	–
Cc1cccc(C)c1NC(=O)Nc1ccc(S(N)(=O)=O)cc1	> 100	> 100	> 100	> 100	> 100	> 100	> 100	> 100	> 100 µM	> 100 µM	–	–	–	–
Cc1cc(N(CCC#N)S(C)(=O)=O)ccc1C=Nc1ccc(C(=O)NN2C(=O)/C(=C/c3ccc(N(CCC#N)CCC#N)cc3C)N=C2c2cc([N+](=O)[O-])ccc2Cl)cc1	> 100	> 100	> 100	> 100	> 100	> 100	> 100	> 100	> 100 µM	> 100 µM	–	–	–	–
CN1C(=O)C(=O)c2cc3c(c4c2c1cc1ccccc14)OCO3	> 100	> 100	38.5	> 100	89.7	> 100	> 100	> 100	96.8 µM	97.2 µM	–	–	–	–
COc1ccc(-c2c3c(n(C4OC(COC(C)=O)C(OC(C)=O)C(OC(C)=O)C4OC(C)=O)c(=S)c2C#N)CC(C)(C)CC3=O)cc1 (centres undefined)	> 100	> 100	> 100	> 100	> 100	> 100	> 100	> 100	71.8 µM and > 100 µM	97.5 µM and 77.2 µM	41.8 µM and > 100 µM	38.9 µM and > 100 µM	40.7 µM and > 100 µM	20.2 µM and > 100 µM
COC(C(=O)NCCCCNC(=O)C(OC)c1ccccc1)c1ccccc1 (centres undefined)	> 100	> 100	> 100	> 100	> 100	> 100	> 100	> 100	> 100 µM	> 100 µM	–	–	–	–
CC/C(CC(=O)CCC(=O)Nc1ccccc1[N+](=O)[O-])=N/NC(=O)C[n+]1ccccc1	> 100	> 100	> 100	> 100	> 100	> 100	> 100	> 100	> 100 µM	> 100 µM	–	–	–	–
O=C1C(Cl)C(c2ccccc2O)N1n1cnc2ccccc2c1=O (centres undefined)	> 100	> 100	> 100	> 100	> 100	> 100	15.1	> 100	95.7 µM	> 100 µM	–	–	–	–
